Assay results: PubChem BioAssay (NCI)
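Briefly, cells in 96-well plates were exposed to five compound concentrations for 48 h, and endpoints were estimated by linear interpolation. The concentration for 50% growth inhibition is given as GI50. Definition used: TGI = concentration required for complete inhibition of growth.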 *1 amine or outer side, *2 acyl side, *3 side chain or, on linkers, in order; H or OH if unused. Where a SMILES comes first, the peptide text is derived from it. Bridges are numbered along the chain shown (N, C = ends). Roman numbers before positions name the chains, in order. X23 = CCCCCCCCCCCCCCC(=O)NC(CCCCN[*:2])C(=O)CN1CCCC1C(=O)[*:1]

Experiments:
Experiment in all cases: DTP human tumour cell line panel, 48 h
SK-MEL-5 melanoma = test system: SK-MEL-5 melanoma
HCT-15 colon = test system: HCT-15 colon
U251 CNS = test system: U251 CNS
HCC-2998 colon = test system: HCC-2998 colon
COLO 205 colon = test system: COLO 205 colon
RXF 393 renal = test system: RXF 393 renal
SK-OV-3 ovarian = test system: SK-OV-3 ovarian
OVCAR-5 ovarian = test system: OVCAR-5 ovarian
NCI-H226 lung = test system: NCI-H226 lung
SF-539 CNS = test system: SF-539 CNS

Row | SMILES | TGI (SK-MEL-5 melanoma) | TGI (HCT-15 colon) | TGI (U251 CNS) | TGI (HCC-2998 colon) | TGI (COLO 205 colon) | TGI (RXF 393 renal) | TGI (SK-OV-3 ovarian) | TGI (OVCAR-5 ovarian) | TGI (NCI-H226 lung) | TGI (SF-539 CNS) | GI50 (SK-MEL-5 melanoma) | GI50 (HCC-2998 colon) | GI50 (COLO 205 colon) | GI50 (RXF 393 renal) | GI50 (SK-OV-3 ovarian) | GI50 (OVCAR-5 ovarian) | GI50 (NCI-H226 lung) | GI50 (SF-539 CNS)
1 | C[As](C)SCC(NC(=O)CCC(N)C(=O)O)C(=O)NCC(=O)O.Cl.c1ccncc1 (stereo not drawn) | 0.878 µM | 0.977 µM | 5.58 µM | 0.813 µM | > 100 µM | 0.398 µM | > 47.8 µM | 6.89 µM | 1.19 µM | 2.09 µM |  |  |  |  |  |  |  | 
2 | OCCSCc1cc(Cl)cc(Cl)c1O | > 100 µM | > 100 µM | > 100 µM | > 100 µM | > 100 µM | > 100 µM | > 100 µM | > 100 µM | > 100 µM |  |  |  |  |  |  |  |  | 
3 | O=C1CC(NC2CC(=O)c3c(Br)sc(Br)c32)c2c(Br)sc(Br)c21 (stereo not drawn) | 18.2 µM | 9.2 µM | 3.36 µM | 30.8 µM | 8.77 µM | 8.86 µM | 32.6 µM | 41.4 µM | 34.1 µM |  |  |  |  |  |  |  |  | 
4 | CCCCCCCCCCCCCCC(=O)NC(CCCCNC(=O)C1CCCN1C(=O)C(CCCCN)NC(=O)C(CCCCN)NC(=O)C(CCCCN)NC(=O)C(CCCNC(=N)N)NC(=O)C(CCCCN)NC(=O)C(N)C(C)C)C(=O)CN1CCCC1C(=O)NCC(=O)NC(Cc1ccccc1)C(=O)N1CCCC1C(=O)NC(CO)C(=O)NC(Cc1ccc(O)cc1)C(=O)NC(CCCCN)C(=O)NC(CC(C)C)C(=O)NC(CCCNC(=N)N)C(=O)N1CCCC1C(=O)NCC(N)=O (stereo not drawn) (I: GFPSYKLRPG-NH2 / II: H-VKRKKKP; linker I:N-II:C via X23; configuration not given here) | > 100 µM |  |  | 8.59 µM | 15.6 µM | 51.1 µM | 44.3 µM | 74.9 µM | 49.7 µM | 75.1 µM | 8.01 µM | 2.34 µM | 2.66 µM | 20.7 µM | 15.9 µM | 29.7 µM | 23.7 µM | 27.7 µM
5 | CC(C)(C)OC(=O)N1CCCC1C(=O)NCCNc1ccc(NCCNC(=O)C2CCCN2C(=O)OC(C)(C)C)c2c1C(=O)c1ccccc1C2=O (stereo not drawn) |  | 26.8 µM | 44.6 µM | 25.7 µM | 27.5 µM |  | 39.6 µM | 30.6 µM | 46.6 µM | 30.1 µM |  |  |  |  |  |  |  | 
6 | O=C1CSc2sc(=S)sc2S1 | > 100 µM | > 100 µM | > 100 µM | > 100 µM | > 100 µM | > 100 µM | > 100 µM | > 100 µM | > 100 µM | > 100 µM |  |  |  |  |  |  |  | 
7 | COC1=CCC2=C(CCN(C(=O)C3CC3)C2Cc2ccc(OC)c(O)c2)C1 (stereo not drawn) | > 100 µM | 59.6 µM | > 100 µM | > 100 µM | > 100 µM | 59.5 µM | > 100 µM | > 100 µM | > 100 µM | > 100 µM |  |  |  |  |  |  |  | 
8 | O=C(Nc1sccc1S(=O)(=O)c1ccc(Cl)cc1)c1ccc(Cl)cc1Cl | > 100 µM | > 100 µM | > 100 µM |  | > 100 µM | > 100 µM | > 100 µM | > 100 µM | > 100 µM | > 100 µM |  |  |  |  |  |  |  | 
9 | CCSC1=C(C#N)C2(CCCCC2)C2=C(CC(C)(C)CC2=O)N1 | > 100 µM | > 100 µM | > 100 µM | > 100 µM | > 100 µM | > 100 µM |  | > 100 µM | > 100 µM | > 100 µM |  |  |  |  |  |  |  | 
10 | Cc1cc(O)c2cc3c(O)c(O)ccc3cc2c1 | 1.07 µM | 5.91 µM | 18.1 µM | 16.4 µM | 1.46 µM | 14.1 µM | 9.82 µM | 13.5 µM | 5.63 µM | 3.27 µM |  |  |  |  |  |  |  | 
11 | O=CNNC(=O)CSc1nc2ccc(I)cc2c(=O)n1Cc1ccccc1 | 38.2 µM | > 100 µM | > 100 µM | 81.6 µM | 36.4 µM | 81.4 µM | > 100 µM | > 100 µM | > 100 µM | > 100 µM |  |  |  |  |  |  |  | 
12 | O=S(=O)(c1ccccc1)[C@@H]1[C@H]2C=C[C@](CS)(O2)[C@H]1S(=O)(=O)c1ccccc1 | > 100 µM | 28.4 µM | > 100 µM | > 100 µM | > 100 µM | > 100 µM | > 100 µM | > 100 µM | > 100 µM |  |  |  |  |  |  |  |  | 
13 | NS(=O)(=O)c1ccc(N=Nc2ccc(O)c(O)c2)cc1 | 19.7 µM | 12.6 µM | 72.9 µM | 41.3 µM | 40.3 µM | 34.8 µM | 67 µM | > 100 µM | 40.8 µM | 45.1 µM |  |  |  |  |  |  |  | 
14 | CC(=O)OCC1OC(N2C(=O)CC(N)=Nc3ccccc32)C(OC(C)=O)C(OC(C)=O)C1OC(C)=O (stereo not drawn) | 46.8 µM | > 100 µM | > 100 µM | > 100 µM | 29.7 µM | 95.1 µM | > 100 µM | > 100 µM |  | 67.5 µM |  |  |  |  |  |  |  | 
15 | Clc1ccc(/C=C/c2nc(-c3ccc(Cl)cc3)cn3c2nc2ccccc23)cc1 | > 100 µM | > 100 µM | > 100 µM | > 100 µM | > 100 µM | > 100 µM | > 100 µM | > 100 µM | > 100 µM | > 100 µM |  |  |  |  |  |  |  | 
